Measurements reported in patent publication US10894784B2, “Heteroarylbenzimidazole compounds” (BAYER PHARMA AKTIENGESELLSCHAFT, priority 2015, dated 2021).

Molecular target: TBK1 (Homo sapiens (Human), UniProt Q9UHD2)
Assay: TBK1 low ATP kinase assay (in vitro assay 1)
Type: biochemical
Details: in vitro assay 1, read-out: TBK1 low ATP kinase assay IC50

Chain of TBK1 (Q9UHD2 whole entry): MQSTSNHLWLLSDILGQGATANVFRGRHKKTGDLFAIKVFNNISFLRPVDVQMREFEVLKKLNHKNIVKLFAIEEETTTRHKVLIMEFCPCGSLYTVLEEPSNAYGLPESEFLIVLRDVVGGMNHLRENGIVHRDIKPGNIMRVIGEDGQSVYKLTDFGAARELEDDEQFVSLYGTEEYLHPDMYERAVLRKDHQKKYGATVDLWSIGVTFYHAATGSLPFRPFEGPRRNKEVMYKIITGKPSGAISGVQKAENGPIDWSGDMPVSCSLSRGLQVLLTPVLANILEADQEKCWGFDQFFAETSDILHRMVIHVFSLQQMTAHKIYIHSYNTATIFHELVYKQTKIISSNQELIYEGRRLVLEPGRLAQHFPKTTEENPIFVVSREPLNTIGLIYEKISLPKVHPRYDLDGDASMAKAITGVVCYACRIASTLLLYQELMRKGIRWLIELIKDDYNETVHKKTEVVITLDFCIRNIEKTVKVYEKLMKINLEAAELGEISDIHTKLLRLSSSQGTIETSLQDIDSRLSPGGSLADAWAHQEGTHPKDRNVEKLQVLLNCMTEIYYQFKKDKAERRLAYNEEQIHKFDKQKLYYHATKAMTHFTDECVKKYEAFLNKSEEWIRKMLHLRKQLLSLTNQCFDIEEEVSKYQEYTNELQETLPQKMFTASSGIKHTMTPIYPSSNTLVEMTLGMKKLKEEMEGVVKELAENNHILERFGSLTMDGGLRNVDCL

| IC50 [nM] | Compound |
| --- | --- |
| 2.5 | CC(c1ccnc(Nc2nc3ccc(-c4cnn(CC5CC5)c4)c(F)c3[nH]2)c1)N1CCN(C(=O)CC(F)(F)F)CC1 (single isomer, unassigned) [Example 121.02] |
| 54.2 | CC(c1ccnc(Nc2nc3ccc(-c4cc(OCC(F)(F)C(F)(F)F)ncn4)cc3[nH]2)c1)N1CCN(C(=O)C2(C(F)(F)F)CC2)CC1 (single isomer, unassigned) [Example 166.04, (4-{(1R or 1S)-1[2-({6-[6-(2,2,3,3,3-pentafluoropropoxy)pyrimidin-4-yl]-1H-benzimidazol-2-yl}amino)pyridin-4-yl]ethyl}piperazin-1-yl)[1-(trifluoromethyl)cyclopropyl]methanone] |
| 362 | CN(C)c1ccnc(-c2ccc3nc(Nc4cc(CN5CCN(C(=O)C6CC6)CC5)ccn4)[nH]c3c2)n1 [Example 181.03, cyclopropyl(4-{[2-({6-[4-(dimethylamino)pyrimidin-2-yl]-1H-benzimidazol-2-yl}amino)pyridin-4-yl]methyl}piperazin-1-yl)methanone] |
| 95.3 | O=C(CC(F)(F)F)N1CCN(Cc2ccnc(Nc3nc4ccc(-c5ncnc(NCC6CCC6)c5F)cc4[nH]3)c2)CC1 [Example 191.02, 1-[4-({2-[(6-{6-[(cyclobutylmethyl)amino]-5-fluoropyrimidin-4-yl}-1H-benzimidazol-2-yl)amino]pyridin-4-yl}methyl)piperazin-1-yl]-3,3,3-trifluoropropan-1-one] |
| 11 | CC(c1ccnc(Nc2nc3ccc(-c4cnn(CC5CC5(F)F)c4)c(F)c3[nH]2)c1)N1CCN(C(=O)OC(C)(C)C)CC1 (single isomer, unassigned) [Example 86.01, tert-butyl 4-[(1R or 1S)-1-(2-{[6-(1-{[(1RS)-2,2-difluorocyclopropyl]methyl}-1H-pyrazol-4-yl)-7-fluoro-1H-benzimidazol-2-yl]amino}pyridin-4-yl)ethyl]piperazine-1-carboxylate] |
| 57 | CC(C)(C)OC(=O)N1CCN(Cc2ccnc(Nc3nc4ccc(-c5ccnc(N6CCOCC6)c5)cc4[nH]3)c2)CC1 [Example 134.01, tert-butyl 4-{[2-({6-[2-(morpholin-4-yl)pyridin-4-yl]-1H-benzimidazol-2-yl}amino)pyridin-4-yl]methyl}piperazine-1-carboxylate] |
| 64 | CC(C)Oc1cc(-c2ccc3nc(Nc4cc(CN5CCN(C(=O)OC(C)(C)C)CC5)ccn4)[nH]c3c2)ncn1 [Example 160.01, tert-butyl 4-{[2-({6-[6-(propan-2-yloxy)pyrimidin-4-yl]-1H-benzimidazol-2-yl}amino)pyridin-4-yl]methyl}piperazine-1-carboxylate] |
| 36.4 | COc1cnc(Cl)nc1-c1ccc2nc(Nc3cc(CN4CCN(C(=O)OC(C)(C)C)CC4)ccn3)[nH]c2c1 [Example 63.01.01, tert-butyl 4-[(2-{[6-(2-chloro-5-methoxypyrimidin-4-yl)-1H-benzimidazol-2-yl]amino}pyridin-4-yl)methyl]piperazine-1-carboxylate] |
| 20 | CC(c1ccnc(Nc2nc3ccc(-c4cnn(CC5CCC5)c4)c(Cl)c3[nH]2)c1)N1CCN(C(=O)OC(C)(C)C)CC1 (single isomer, unassigned) [Example 75.01, tert-butyl 4-{(1R or 1S)-1-[2-({7-chloro-6-[1-(cyclobutylmethyl)-1H-pyrazol-4-yl]-1H-benzimidazol-2-yl}amino)pyridin-4-yl]ethyl}piperazine-1-carboxylate] |
| 0.72 | CC(c1ccnc(Nc2nc3ccc(-c4cnn(CC5CC5(F)F)c4)cc3[nH]2)c1)N1CCN(C(=O)CC(F)(F)F)CC1 (single isomer, unassigned) [Example 55.02.01, 1-{4-[(1R or 1S)-1-(2-{[6-(1-{[(1R or IS)-2,2-difluorocyclopropyl]methyl}-1H-pyrazol-4-yl)-1H-benzimidazol-2-yl]amino}pyridin-4-yl)ethyl]piperazin-1-yl}-3,3,3-trifluoropropan-1-one] |
| 38 | Cc1cc(-c2ccc3nc(Nc4cc(CN5CCN(C(=O)CC(F)(F)F)CC5)ccn4)[nH]c3c2)cc(C#N)n1 [Example 136.02, 6-methyl-4-{2-[(4-{[4-(3,3,3-trifluoropropanoyl)piperazin-1-yl]methyl}pyridin-2-yl)amino]-1H-benzimidazol-6-yl}pyridine-2-carbonitrile] |
| 210 | Cc1noc(-c2ccc3nc(Nc4cc(CN5CCN(c6ccccn6)CC5)ccn4)[nH]c3c2)n1 [Example 101.15, 6-(3-methyl-1,2,4-oxadiazol-5-yl)-N-(4-{[4-(pyridin-2-yl)piperazin-1-yl]methyl}pyridin-2-yl)-1H-benzimidazol-2-amine] |

Further lines, the compound ahead of its results:

| Compound | IC50 [nM] |
| --- | --- |
| O=C(CC(F)(F)F)N1CCN(Cc2ccnc(Nc3nc4ccc(-c5nc(C6CC6)no5)cc4[nH]3)c2)CC1 [Example 17.02, 1-{4-[(2-{[6-(3-cyclopropyl-1,2,4-oxadiazol-5-yl)-1H-benzimidazol-2-yl]amino}pyridin-4-yl)methyl]piperazin-1-yl}-3,3,3-trifluoropropan-1-one] | 64.9 |
| CCOc1c(-c2cnn(CC)c2)ccc2nc(Nc3cc(CN4CCN(C(=O)CC(F)(F)F)CC4)ccn3)[nH]c12 [Example 53.01, 1-{4-[(2-{[7-ethoxy-6-(1-ethyl-1H-pyrazol-4-yl)-1H-benzimidazol-2-yl]amino}pyridin-4-yl)methyl]piperazin-1-yl}-3,3,3-trifluoropropan-1-one] | 132 |
| Cc1noc(-c2ccc3nc(Nc4cc(CN5CCN(C(=O)C6CC6)C[C@H]5C)ccn4)[nH]c3c2)n1 [Example 16.03.04, cyclopropyl{(3R)-3-methyl-4-[(2-{[6-(3-methyl-1,2,4-oxadiazol-5-yl)-1H-benzimidazol-2-yl]amino}pyridin-4-yl)methyl]piperazin-1-yl}methanone] | 54.6 |
| O=C(CC1CC1)N1CCN(Cc2ccnc(Nc3nc4ccc(-c5ccncn5)cc4[nH]3)c2)CC1 [Example 23.01.01, 2-cyclopropyl-1-{4-[(2-{[6-(pyrimidin-4-yl)-1H-benzimidazol-2-yl]amino}pyridin-4-yl)methyl]piperazin-1-yl}ethanone] | 33.4 |
| COc1cncnc1-c1ccc2nc(Nc3cc(C(C)N4CCN(C(=O)C5CCC5)CC4)ccn3)[nH]c2c1 (single isomer, unassigned) [Example 35.03.04.A, cyclobutyl{4-[(1R or 1S)-1-(2-{[6-(5-methoxypyrimidin-4-yl)-1H-benzimidazol-2-yl]amino}pyridin-4-yl)ethyl]piperazin-1-yl}methanone] | 8.38 |
| CSc1ncc(-c2ccc3nc(Nc4cc(CN5CCN(C(=O)C6CC6)CC5)ccn4)[nH]c3c2)cn1 [Example 45.05.03, cyclopropyl(4-{[2-({6-[2-(methylsulfanyl)pyrimidin-5-yl]-1H-benzimidazol-2-yl}amino)pyridin-4-yl]methyl}piperazin-1-yl)methanone] | 840 |
| COc1nnccc1-c1ccc2nc(Nc3cc(CN4CCN(C(=O)C5CC5)CC4)ccn3)[nH]c2c1 [Example 46.01, cyclopropyl{4-[(2-{[6-(3-methoxypyridazin-4-yl)-1H-benzimidazol-2-yl]amino}pyridin-4-yl)methyl]piperazin-1-yl}methanone] | 32.5 |
| Cc1nccc(-c2ccc3nc(Nc4cc(C(C)N5CCN(C(=O)C6CCC6)CC5)ccn4)[nH]c3c2)n1 (single isomer, unassigned) [Example 24.05.02.B, cyclobutyl{4-[(1S or 1R)-1-(2-{[6-(2-methylpyrimidin-4-yl)-1H-benzimidazol-2-yl]amino}pyridin-4-yl)ethyl]piperazin-1-yl}methanone] | 55.1 |
| Cc1noc(-c2ccc3nc(Nc4cc(CN5CCN(C(=O)OC(C)(C)C)CC5)ccn4)[nH]c3c2)n1 [Example 16.01.01, tert-butyl 4-[(2-{[6-(3-methyl-1,2,4-oxadiazol-5-yl)-1H-benzimidazol-2-yl]amino}pyridin-4-yl)methyl]piperazine-1-carboxylate] | 230 |
| COc1cncnc1-c1ccc2nc(Nc3cc(CN4CCN(S(=O)(=O)N5CCC(OC)CC5)CC4)ccn3)[nH]c2c1 [Example 35.01.17, N-[4-({4-[(4-methoxypiperidin-1-yl)sulfonyl]piperazin-1-yl}methyl)pyridin-2-yl]-6-(5-methoxypyrimidin-4-yl)-1H-benzimidazol-2-amine] | 39.2 |
| COc1cc(-c2ccc3nc(Nc4cc(CN5CCN(C(=O)CC(F)(F)F)CC5)ccn4)[nH]c3c2)c(F)cn1 [Example 03.02, 3,3,3-trifluoro-1-{4-[(2-{[6-(5-fluoro-2-methoxypyridin-4-yl)-1H-benzimidazol-2-yl]amino}pyridin-4-yl)methyl]piperazin-1-yl}propan-1-one] | 232 |
| Cc1noc(-c2ccc3nc(Nc4cc(CN5CCN(C(=O)C6CC6)CC5)ccn4)[nH]c3c2)n1 [Example 16.01.04, cyclopropyl{4-[(2-{[6-(3-methyl-1,2,4-oxadiazol-5-yl)-1H-benzimidazol-2-yl]amino}pyridin-4-yl)methyl]piperazin-1-yl}methanone] | 67 |
| COc1ccc(-c2ccc3nc(Nc4cc(CN5CCN(C(=O)C6CC6)CC5)ccn4)[nH]c3c2)nn1 [Example 47.01, cyclopropyl{4-[(2-{[6-(6-methoxypyridazin-3-yl)-1H-benzimidazol-2-yl]amino}pyridin-4-yl)methyl]piperazin-1-yl}methanone] | 394 |
| Cc1cc(-c2ccc3nc(Nc4cc(C(C)N5CCN(C(=O)C6CCC6)CC5)ccn4)[nH]c3c2)ncn1 (single isomer, unassigned) [Example 30.03.02.B, cyclobutyl{4-[(1S or 1R)-1-(2-{[6-(6-methylpyrimidin-4-yl)-1H-benzimidazol-2-yl]amino}pyridin-4-yl)ethyl]piperazin-1-yl}methanone] | 27.5 |
| Cc1cc(CN2CCN(C(=O)C3CC3)CC2)cc(Nc2nc3ccc(-c4ccnc(C)n4)cc3[nH]2)n1 [Example 24.02.01, cyclopropyl{4-[(2-methyl-6-{[6-(2-methylpyrimidin-4-yl)-1H-benzimidazol-2-yl]amino}pyridin-4-yl)methyl]piperazin-1-yl}methanone] | 45.8 |
| O=C(C1CC1)N1CCN(Cc2cc(Nc3nc4ccc(-c5ccncn5)cc4[nH]3)nc(C(F)(F)F)c2)CC1 [Example 23.03.01, cyclopropyl(4-{[2-{[6-(pyrimidin-4-yl)-1H-benzimidazol-2-yl]amino}-6-(trifluoromethyl)pyridin-4-yl]methyl}piperazin-1-yl)methanone] | 161 |
